From patent US9505821B2, “ATAP peptides, nucleic acids encoding the same and associated methods of use” (Rutgers, The State University of New Jersey, priority 2006, dated 2016) come the findings set out here.

The nature of data set [1]: planar lipid bilayer reconstitution, electrophysiology. The method, then:
The 29-mer ATAP peptide ([…]) (SEQ ID NO.: 36) corresponding to the C-terminus of Bfl1 and its mutant mHR7 (KFEP-KSGWMTFLQVTG-LICQMLSLLKQYC) (SEQ ID NO.: 50) were synthesized by Abgent (San Diego, Calif.) with 99% purity as measured by HPLC and mass spectrometry. The peptides were dissolved in DMSO to make a 10 mM stock. Phospholipids were purchased from Avanti Polar Lipids (Birmingham, Ala.). Electrophysiological analysis was performed as described (Lam et al., 1998; Ma et al., 1988). Lipid bilayer membranes were formed across an aperture of 200 μm diameter with a 1:1 mixture of bovine brain phosphatidylethanolamine and bovine brain phosphatidylserine dissolved in n-decane at a concentration of 50 mg/ml. The recording solutions contained: cis, 200 mM KCl and 10 mM HEPES-Tris (pH 7.4); trans, 50 mM NaCl, 10 mM HEPES-Tris (pH 7.4). 1 n1 of 10 mM peptides dissolved in DMSO were added into 900 n1 of cis solution and fused into the bilayer. Voltage manipulation and currents were measured using an Axopatch 200 A amplifier (Axon Instruments, Foster City, Calif.). Data analyses were preformed with pClamp and TIPS software.

Data set [2] relates to mitochondria membrane isolated from BMK-D3 cells. The data set can be described thus: in vitro cytochrome c release from isolated mitochondria. The format is biochemical, mouse. The settings on record: synthetic peptide 100 μM, 1 hour at 37° C. The method, then: Mitochondria-free cytosol was prepared as previously described (Ko et al., 2003a). Briefly, 24 hours after transfection, HEK293 cells were collected by scraping, washed twice with ice-cold PBS, suspended in […] extraction buffer (50 mM PIPES-KOH, pH 7.4, 200 mM mannitol, 70 mM sucrose, 50 mM KCl, 5 mM EGTA, 2 mM MgCl2, 1 mM dithiothreitol and protease inhibitors), and incubated on ice for 30 minutes. Cells were lysed by Dounce homogenization and homogenates were centrifuged at 100,000 g for 15 minutes at 4° C. Supernatants were harvested and 20 μg of protein was analyzed by western blotting using monoclonal anticytochrome c antibody. For in vitro analysis of cytochrome c release, heavy membranes enriched in mitochondria were isolated from BMK-D3 cells using a mitochondria fractionation kit (Active Motif) according to the instructions of the manufacturer. Isolated mitochondria were diluted to a concentration of 1 mg/ml in the extraction buffer and incubated with synthetic ATAP or mHR7 peptides (100 μM) or DMSO as control for 1 hour at 37° C. The reactions were then centrifuged at 13,000 g for 10 minutes and the resulting pellets and supernatants were analyzed by SDS-PAGE.

In a further data set the test system is E. coli. In words: toxicity of bacterial expression. The data set is classed as cell-based. The settings on record: data not shown.
Data set [3] has as its system HEK293 cells. In words: cell death by propidium iodide (PI) staining / exclusion after transfection. The format is cell-based. Particulars: HEK293, 24 h after transfection. The method, then: (§1) Apoptotic cell death was monitored after transfection of expression plasmids into HEK293, HeLa, MCF-7 or BMK D3 cells. 2×10^5 cells were cultured in 35-mm wells for 24 hours in Dulbecco's modified Eagle's medium (DMEM) supplemented with 10% fetal bovine serum. Cells were transfected using the Lipofectamine 2000 reagent (Invitrogen), with 1 μg of the indicated expression plasmids and further cultured in the absence or presence of 50 μM of pan-caspase inhibitor, Q-VD-OPH (OPH, Enzyme Systems Products). For morphological assessment of apoptotic cell death, cells were plated onto LabTek II chamber slides (Nalgen Nunc International) at densities of 5×10^4 cells per well. 24 hours after transfection, cells were washed with phosphate-buffered saline (PBS) prior to fixation with 4% formaldehyde. […] Cell death was also measured by propidium iodide (PI) exclusion. […] Cells were observed and photographed with a fluorescence microscope at three different fields containing approximately 200 GFP-positive cells. GFP and PI double-positive cells were counted as dead cells. Quantitative analysis of cell viability was determined by _-galactosidase reporter assay according to the procedures as described (Chittenden et al., 1995; Wood and Newcomb, 2000). […] At 24 hours following transfection, cells were harvested and β-galactosidase activity was measured using β-Galactosidase Enzyme Assay System (Promega). […]

Data set [4] concerns HEK293 cells. The data set can be described thus: β-galactosidase reporter assay of cell viability after co-transfection. The data set is classed as cell-based. Particulars: HEK293, 24 h after co-transfection, n=5. As to the method: as §1

Turning to “KFEP-KSGWMTFLQVTG-LICQMLSLLKQYC (KFEPKSGWMTFLEVTGLICEMLSLLKQYC; (1)..(29) K163L - ATAP; listed as Homo sapiens) [mHR7 peptide, synthetic mutant of the 29-mer ATAP peptide]”, in data set [1] (peptide 11-44 μM, n=35), the “changes in membrane conductance” value is reported as “did not induce any notable changes in membrane conductance”. The “cytochrome c release from isolated mitochondria” value in data set [2] is recorded as “not observed”.
Consider “KFEPKSGWMTFLEVTGKICEMLSLLKQYC ((1)..(29) ATAP peptide derived from residues 147-175 of Bfl-1; listed as Homo sapiens) [29-mer amphipathic tail-anchoring peptide corresponding to the C-terminus of Bfl1 (a.a. 147-175)]”, for which the “toxicity of expression in E. coli” value in the data set with E. coli is “lysis of the cells”; in the data set on E. coli (listed as Bfl-1 TA peptide) it was “toxic to E. coli cell growth”. Moreover, the “reversal potential for currents” value in data set [1] (200 mM KCl (cis) / 50 mM NaCl (trans)) is listed as roughly −30 mV. In addition, in data set [1] (peptide >22.2 μM, n>30), the “rupture of the lipid bilayer, time after addition of the peptide” value is no more than 30 min. Further, in data set [2], the “cytochrome c release from isolated mitochondria” value is “induced release of cytochrome c”.

B1: FLAG-Bfl-1: FLAG-tagged full-length Bfl-1 (protein, UniProt Q16548 1-175, looked up)
chain: MTDCEFGYIYRLAQDYLQCVLQIPQPGSGPSKTSRVLQNVAFSVQKEVEKNLKSCLDNVNVVSVDTARTLFNQVMEKEFEDGIINWGRIVTIFAFEGILIKKLLRQQIAPDVDTYKEISYFVAEFIMNNTGEWIRQNGGWENGFVKKFEPKSGWMTFLEVTGKICEMLSLLKQYC
modifications: full-length FLAG tag
On to B1, for which the “cell death by PI staining” value in the data set on HEK293 cells [3] is “no toxic effect”. Also, the β-galactosidase activity with HEK293 cells [4] is on record as 1.11±0.06 fold over control.
